Laboratory results taken from patent US20210221848A1, “POLYMYXIN DERIVATIVES AND THEIR USE IN COMBINATION THERAPY TOGETHER WITH DIFFERENT ANTIBIOTICS” (priority 2014, published 2021).
Like-named read-outs stand apart in the source and are kept apart here.

Columns and labels:
[1] = tested on: P. aeruginosa
[2] = tested on: A. baumannii
[3] = tested on: K. pneumoniae
[4] = tested on: E. coli
[5] = absence of a second agent, Table 6B

Substance	MIC, P. aeruginosa ATCC 27853 [1, 5]	MIC, P. aeruginosa CCUG 59347 [1, 5]	MIC, A. baumannii ATCC BAA-747 [2, 5]	MIC, A. baumannii NCTC 13424 [2, 5]	MIC, K. pneumoniae ATCC 4352 [3, 5]	MIC, K. pneumoniae ATCC BAA-2146 [3, 5]	MIC, E. coli ATCC 25922 [4, 5]	MIC, E. coli NCTC 13441 [4, 5]	MIC, P. aeruginosa ATCC 27853 ([1]; sole activity, Table 6C)	MIC, P. aeruginosa CCUG 59347 ([1]; sole activity, Table 6C)	MIC, A. baumannii ATCC BAA-747 ([2]; sole activity, Table 6C)	MIC, A. baumannii NCTC 13424 ([2]; sole activity, Table 6C)	MIC, K. pneumoniae ATCC 4352 ([3]; sole activity, Table 6C)	MIC, K. pneumoniae ATCC BAA-2146 ([3]; sole activity, Table 6C)	MIC, E. coli ATCC 25922 ([4]; sole activity, Table 6C)	MIC, E. coli NCTC 13441 ([4]; sole activity, Table 6C)
4-Amino-2-benzyl butanoylpolymyxin B nonapeptide [Example D3]	0.5 micrograms/mL	1 micrograms/mL	>8 micrograms/mL	>8 micrograms/mL	1 micrograms/mL	2 micrograms/mL	0.25 micrograms/mL	0.5 micrograms/mL								
1-(2- trifluoromethylben- zyl)piperazine- 2-carbonyl Polymyxin B nonapeptide [Example D55]									0.5 micrograms/mL	1 micrograms/mL	0.25 micrograms/mL	0.5 micrograms/mL	0.25 micrograms/mL	0.5 micrograms/mL	0.25 micrograms/mL	0.25 micrograms/mL
2-(2-aminoethyl)-4- methyl pentanoyl polymyxin B nonapeptide [Example D45]	1 micrograms/mL	4 micrograms/mL	8 micrograms/mL	4 micrograms/mL	0.5 micrograms/mL	2 micrograms/mL	0.5 micrograms/mL	2 micrograms/mL								
(S)-4-amino-2- (benzyloxy)butan- oyl Polymyxin B nonapeptide [Example D54]									0.5 micrograms/mL	1 micrograms/mL	1 micrograms/mL	4 micrograms/mL	0.125 micrograms/mL	0.25 micrograms/mL	0.25 micrograms/mL	0.5 micrograms/mL
2-aminomethyl-3- naphthalen-2-yl- propanoyl polymyxin B nonapeptide [Example D41]	0.5 micrograms/mL	1 micrograms/mL	2 micrograms/mL	1 micrograms/mL	2 micrograms/mL		1 micrograms/mL	1 micrograms/mL								
2-benzyl-3- (methylamino)pro- panoyl polymyxin B nonapeptide [Example D57]									0.5 micrograms/mL	1 micrograms/mL	4 micrograms/mL	2 micrograms/mL	0.25 micrograms/mL	0.25 micrograms/mL	0.25 micrograms/mL	0.5 micrograms/mL
5-((2- methylpropyl)sulfon- amido)piperidine- 3-carbonyl- polymyxin B nonapeptide [Example D73]									1 micrograms/mL	2 micrograms/mL	4 micrograms/mL	2 micrograms/mL	0.5 micrograms/mL	0.5 micrograms/mL	0.25 micrograms/mL	0.5 micrograms/mL
5- (isobutylamino)pi- peridine-3- carbonyl Polymyxin B nonapeptide [Example D62]									1 micrograms/mL	2 micrograms/mL	4 micrograms/mL	4 micrograms/mL	0.5 micrograms/mL	1 micrograms/mL	0.5 micrograms/mL	1 micrograms/mL
(S)-3-amino-2- (benzylamino)pro- panoyl Polymyxin B nonapeptide [Example D59]									0.5 micrograms/mL	1 micrograms/mL	2 micrograms/mL	1 micrograms/mL	0.5 micrograms/mL	0.5 micrograms/mL	0.5 micrograms/mL	0.5 micrograms/mL
trans-4- Phenylpyrrolidine-3- carbonyl polymyxin B nonapeptide [Example D1]	0.5 micrograms/mL	2 micrograms/mL	4 micrograms/mL	4 micrograms/mL	2 micrograms/mL	1 micrograms/mL	4 micrograms/mL	4 micrograms/mL								
(trans-5-(2- methylpropyl) piperidine)-3-carbonyl polymyxin B nonapeptide [Example D49]	2 micrograms/mL	4 micrograms/mL	>8 micrograms/mL	>8 micrograms/mL	4 micrograms/mL	8 micrograms/mL	8 micrograms/mL	8 micrograms/mL								
4-octylpiperidine-3- carbonyl polymyxin B nonapeptide [Example D34]	1 micrograms/mL	2 micrograms/mL	2 micrograms/mL	2 micrograms/mL	2 micrograms/mL	2 micrograms/mL	1 micrograms/mL	1 micrograms/mL								
(cis-5-(2-methylpropyl) piperidine)-3-carbonyl polymyxin B nonapeptide [Example D47]	2 micrograms/mL	>8 micrograms/mL	>8 micrograms/mL	>8 micrograms/mL	4 micrograms/mL	8 micrograms/mL	4 micrograms/mL	8 micrograms/mL								
2-aminomethyl-3- naphthalen-2-yl- propanoyl polymyxin B nonapeptide [Example D40]	0.5 micrograms/mL	1 micrograms/mL	>8 micrograms/mL	8 micrograms/mL	2 micrograms/mL	4 micrograms/mL	2 micrograms/mL	2 micrograms/mL								
(cis-6-octylpiperidine)- 3-carbonyl polymyxin B nonapeptide [Example D16]	8 micrograms/mL	1 micrograms/mL	>8 micrograms/mL	>8 micrograms/mL	>8 micrograms/mL	>8 micrograms/mL	>8 micrograms/mL	>8 micrograms/mL								
